US20040266623A1, “SYNERGISTIC QUINCLORAC HERBICIDAL COMPOSITIONS” (priority 2003, published 2004)

How the values were obtained:
Experiment in all cases: Greenhouse pot test, postemergent spray, visual control rating converted to percent control
Type in all cases: in vivo
[1] = system: crabgrass; conditions: for Control (1-9) Crabgrass: scale 1=no control, 9=death of plant
Experimental: (§1) Pots of crabgrass, dandelion, white clover, and plantain grown in greenhouse soiless growth media were sprayed with a greenhouse pot sprayer at 43.46 gallons of spray solution/acre and allowed to stand in the greenhouse. Visual observation of the effects made by the herbicidal compositions on the plants in the test pots was recorded for control of crabgrass, dandelion, clover and plantain at 24 hours after treatment (HAT), 48 hours after treatment (HAT), 72 hours after treatment (HAT), 7 days after treatment (DAT), 14 days after treatment (DAT) and 21 days after treatment (DAT). A control rating scale of 1 to 9 was used to record the visual observation of the effect of the herbicidal composition on the plants over the time period of the tests. 1=no control, and 9=death of plant, with intervening numbers representing successive degrees of observed effectiveness of the herbicidal composition over time. The 1-9 control rating scale was converted to percent control in the test data charts that follow.
(§2) The test protocol of S. R. Colby as set out in his article entitled “Calculating Synergistic and Antagonistic Responses of Herbicide Compositions,” received for publication Apr. 11, 1966, Contribution No. 3796 and Scientific Article No. 1271 of the Maryland Agricultural Experiment Station, Department pf Agronomy, University of Maryland was followed to evaluate the synergistic properties of the combination of quinclorac plus a herbicidal protox inhibitor, and a combination of quinclorac, plus a herbicidal protox inhibitor plus a herbicidal auxinic agent as compared with the individual herbicides, using Colby's formulas E=X+Y−XY/100 for a two herbicide combination, where E=the expected percent of inhibition of growth by herbicides, X=the percent inhibition of growth by herbicide A at p lb/A, and Y=the percent inhibition of growth by herbicide B at q lb/A, for a given combination of two herbicides. Colby's formula E=X+Y+Z−(XY+XZ+YZ)/100+XYZ/10,000, was used for the three-way herbicide combination evaluation, where E, X and Y are the same as in the two herbicide formula and Z=the percent inhibition of growth by the third herbicide.

[2] = system: dandelion; conditions: for Control (1-9) Dandelion: scale 1=no control, 9=death of plant
Experimental: as §1, §2

[3] = system: plantain; conditions: for Control (1-9) Plantain: scale 1=no control, 9=death of plant
Experimental: as §1, §2

[4] = system: white clover; conditions: for Control (1-9) Clover: scale 1=no control, 9=death of plant
Experimental: as §1, §2

Compound: Cc1nn(-c2cc(NS(C)(=O)=O)c(Cl)cc2Cl)c(=O)n1C(F)F [Sulfentrazone @ 0.03 lbs/A]
- % Control Crabgrass ([1]; Test 3, 7 DAT): 55.6%
- Control (1-9) Crabgrass ([1]; Test 3, 7 DAT): 5
- % Control Crabgrass ([1]; Test 3, 14 DAT): 55.6%
- Control (1-9) Crabgrass ([1]; Test 3, 14 DAT): 5
- % Control Crabgrass ([1]; Test 3, 21 DAT): 44.4%
- Control (1-9) Crabgrass ([1]; Test 3, 21 DAT): 4
- % Control Crabgrass ([1]; Test 3, 24 HAT): 11.1%
- Control (1-9) Crabgrass ([1]; Test 3, 24 HAT): 1
- % Control Crabgrass ([1]; Test 3, 72 HAT): 44.4%
- Control (1-9) Crabgrass ([1]; Test 3, 72 HAT): 4
- % Control Dandelion ([2]; Test 3, 7 DAT): 66.7%
- Control (1-9) Dandelion ([2]; Test 3, 7 DAT): 6
- % Control Dandelion ([2]; Test 3, 14 DAT): 77.8%
- Control (1-9) Dandelion ([2]; Test 3, 14 DAT): 7
- % Control Dandelion ([2]; Test 3, 21 DAT): 77.8%
- Control (1-9) Dandelion ([2]; Test 3, 21 DAT): 7
- % Control Dandelion ([2]; Test 3, 24 HAT): 33.3%
- Control (1-9) Dandelion ([2]; Test 3, 24 HAT): 3
- % Control Dandelion ([2]; Test 3, 72 HAT): 55.6%
- Control (1-9) Dandelion ([2]; Test 3, 72 HAT): 5
- % Control Plantain ([3]; Test 3, 7 DAT): 88.9%
- Control (1-9) Plantain ([3]; Test 3, 7 DAT): 8
- % Control Plantain ([3]; Test 3, 14 DAT): 88.9%
- Control (1-9) Plantain ([3]; Test 3, 14 DAT): 8
- % Control Plantain ([3]; Test 3, 21 DAT): 100.0%
- Control (1-9) Plantain ([3]; Test 3, 21 DAT): 9
- % Control Plantain ([3]; Test 3, 24 HAT): 44.4%
- Control (1-9) Plantain ([3]; Test 3, 24 HAT): 4
- % Control Plantain ([3]; Test 3, 72 HAT): 66.7%
- Control (1-9) Plantain ([3]; Test 3, 72 HAT): 6
- % Control Clover ([4]; Test 3, 7 DAT): 44.4%
- Control (1-9) Clover ([4]; Test 3, 7 DAT): 4
- % Control Clover ([4]; Test 3, 14 DAT): 55.6%
- Control (1-9) Clover ([4]; Test 3, 14 DAT): 5
- % Control Clover ([4]; Test 3, 21 DAT): 55.6%
- Control (1-9) Clover ([4]; Test 3, 21 DAT): 5
- % Control Clover ([4]; Test 3, 24 HAT): 22.2%
- Control (1-9) Clover ([4]; Test 3, 24 HAT): 2
- % Control Clover ([4]; Test 3, 72 HAT): 33.3%
- Control (1-9) Clover ([4]; Test 3, 72 HAT): 3

Compound: Cc1nn(-c2cc(CC(Cl)C(=O)O)c(Cl)cc2F)c(=O)n1C(F)F (centres unmarked) [Carfentrazone @ 0.02 lbs/A]
- % Control Crabgrass ([1]; Test 4, 24 HAT): 11.1%
- Control (1-9) Crabgrass ([1]; Test 4, 24 HAT): 1
- % Control Crabgrass ([1]; Test 4, 72 HAT): 44.4%
- Control (1-9) Crabgrass ([1]; Test 4, 72 HAT): 4
- % Control Dandelion ([2]; Test 4, 24 HAT): 33.3%
- Control (1-9) Dandelion ([2]; Test 4, 24 HAT): 3
- % Control Dandelion ([2]; Test 4, 72 HAT): 55.6%
- Control (1-9) Dandelion ([2]; Test 4, 72 HAT): 5
- % Control Plantain ([3]; Test 4, 24 HAT): 33.3%
- Control (1-9) Plantain ([3]; Test 4, 24 HAT): 3
- % Control Plantain ([3]; Test 4, 72 HAT): 66.7%
- Control (1-9) Plantain ([3]; Test 4, 72 HAT): 6
- % Control Clover ([4]; Test 4, 24 HAT): 44.4%
- Control (1-9) Clover ([4]; Test 4, 24 HAT): 4
- % Control Clover ([4]; Test 4, 72 HAT): 44.4%
- Control (1-9) Clover ([4]; Test 4, 72 HAT): 4

Compound: Cc1nn(-c2cc(NS(C)(=O)=O)c(Cl)cc2Cl)c(=O)n1C(F)F [Sulfentrazone @ 0.02 lbs/A]
- % Control Crabgrass ([1]; Test 3, 7 DAT): 44.4%
- Control (1-9) Crabgrass ([1]; Test 3, 7 DAT): 4
- % Control Crabgrass ([1]; Test 3, 14 DAT): 44.4%
- Control (1-9) Crabgrass ([1]; Test 3, 14 DAT): 4
- % Control Crabgrass ([1]; Test 3, 21 DAT): 33.3%
- Control (1-9) Crabgrass ([1]; Test 3, 21 DAT): 3
- % Control Crabgrass ([1]; Test 3, 24 HAT): 11.1%
- Control (1-9) Crabgrass ([1]; Test 3, 24 HAT): 1
- % Control Crabgrass ([1]; Test 3, 72 HAT): 22.2%
- Control (1-9) Crabgrass ([1]; Test 3, 72 HAT): 2
- % Control Dandelion ([2]; Test 3, 7 DAT): 44.4%
- Control (1-9) Dandelion ([2]; Test 3, 7 DAT): 4
- % Control Dandelion ([2]; Test 3, 14 DAT): 77.8%
- Control (1-9) Dandelion ([2]; Test 3, 14 DAT): 7
- % Control Dandelion ([2]; Test 3, 21 DAT): 66.7%
- Control (1-9) Dandelion ([2]; Test 3, 21 DAT): 6
- % Control Dandelion ([2]; Test 3, 24 HAT): 33.3%
- Control (1-9) Dandelion ([2]; Test 3, 24 HAT): 3
- % Control Dandelion ([2]; Test 3, 72 HAT): 33.3%
- Control (1-9) Dandelion ([2]; Test 3, 72 HAT): 3
- % Control Plantain ([3]; Test 3, 7 DAT): 100.0%
- Control (1-9) Plantain ([3]; Test 3, 7 DAT): 9
- % Control Plantain ([3]; Test 3, 14 DAT): 100.0%
- Control (1-9) Plantain ([3]; Test 3, 14 DAT): 9
- % Control Plantain ([3]; Test 3, 21 DAT): 100.0%
- Control (1-9) Plantain ([3]; Test 3, 21 DAT): 9
- % Control Plantain ([3]; Test 3, 24 HAT): 44.4%
- Control (1-9) Plantain ([3]; Test 3, 24 HAT): 4
- % Control Plantain ([3]; Test 3, 72 HAT): 88.9%
- Control (1-9) Plantain ([3]; Test 3, 72 HAT): 8
- % Control Clover ([4]; Test 3, 7 DAT): 33.3%
- Control (1-9) Clover ([4]; Test 3, 7 DAT): 3
- % Control Clover ([4]; Test 3, 14 DAT): 44.4%
- Control (1-9) Clover ([4]; Test 3, 14 DAT): 4
- % Control Clover ([4]; Test 3, 21 DAT): 44.4%
- Control (1-9) Clover ([4]; Test 3, 21 DAT): 4
- % Control Clover ([4]; Test 3, 24 HAT): 33.3%
- Control (1-9) Clover ([4]; Test 3, 24 HAT): 3
- % Control Clover ([4]; Test 3, 72 HAT): 22.2%
- Control (1-9) Clover ([4]; Test 3, 72 HAT): 2

Compound: O=C(O)c1c(Cl)ccc2cc(Cl)cnc12 [Quinclorac @ 0.18 lbs/A]
- % Control Crabgrass ([1]; Test 3, 7 DAT): 22.2%
- Control (1-9) Crabgrass ([1]; Test 3, 7 DAT): 2
- % Control Crabgrass ([1]; Test 3, 14 DAT): 33.3%
- Control (1-9) Crabgrass ([1]; Test 3, 14 DAT): 3
- % Control Crabgrass ([1]; Test 3, 21 DAT): 33.3%
- Control (1-9) Crabgrass ([1]; Test 3, 21 DAT): 3
- % Control Crabgrass ([1]; Test 3, 24 HAT): 11.1%
- Control (1-9) Crabgrass ([1]; Test 3, 24 HAT): 1
- % Control Crabgrass ([1]; Test 3, 72 HAT): 11.1%
- Control (1-9) Crabgrass ([1]; Test 3, 72 HAT): 1
- % Control Crabgrass ([1]; Test 4, 24 HAT): 11.1%
- Control (1-9) Crabgrass ([1]; Test 4, 24 HAT): 1
- % Control Crabgrass ([1]; Test 4, 72 HAT): 11.1%
- Control (1-9) Crabgrass ([1]; Test 4, 72 HAT): 1
- % Control Dandelion ([2]; Test 3, 7 DAT): 22.2%
- Control (1-9) Dandelion ([2]; Test 3, 7 DAT): 2
- % Control Dandelion ([2]; Test 3, 14 DAT): 33.3%
- Control (1-9) Dandelion ([2]; Test 3, 14 DAT): 3
- % Control Dandelion ([2]; Test 3, 21 DAT): 33.3%
- Control (1-9) Dandelion ([2]; Test 3, 21 DAT): 3
- % Control Dandelion ([2]; Test 3, 24 HAT): 11.1%
- Control (1-9) Dandelion ([2]; Test 3, 24 HAT): 1
- % Control Dandelion ([2]; Test 3, 72 HAT): 22.2%
- Control (1-9) Dandelion ([2]; Test 3, 72 HAT): 2
- % Control Dandelion ([2]; Test 4, 24 HAT): 11.1%
- Control (1-9) Dandelion ([2]; Test 4, 24 HAT): 1
- % Control Dandelion ([2]; Test 4, 72 HAT): 22.2%
- Control (1-9) Dandelion ([2]; Test 4, 72 HAT): 2
- % Control Plantain ([3]; Test 3, 7 DAT): 22.2%
- Control (1-9) Plantain ([3]; Test 3, 7 DAT): 2
- % Control Plantain ([3]; Test 3, 14 DAT): 33.3%
- Control (1-9) Plantain ([3]; Test 3, 14 DAT): 3
- % Control Plantain ([3]; Test 3, 21 DAT): 33.3%
- Control (1-9) Plantain ([3]; Test 3, 21 DAT): 3
- % Control Plantain ([3]; Test 3, 24 HAT): 11.1%
- Control (1-9) Plantain ([3]; Test 3, 24 HAT): 1
- % Control Plantain ([3]; Test 3, 72 HAT): 22.2%
- Control (1-9) Plantain ([3]; Test 3, 72 HAT): 2
- % Control Plantain ([3]; Test 4, 24 HAT): 11.1%
- Control (1-9) Plantain ([3]; Test 4, 24 HAT): 1
- % Control Plantain ([3]; Test 4, 72 HAT): 22.2%
- Control (1-9) Plantain ([3]; Test 4, 72 HAT): 2
- % Control Clover ([4]; Test 3, 7 DAT): 44.4%
- Control (1-9) Clover ([4]; Test 3, 7 DAT): 4
- % Control Clover ([4]; Test 3, 14 DAT): 44.4%
- Control (1-9) Clover ([4]; Test 3, 14 DAT): 4
- % Control Clover ([4]; Test 3, 21 DAT): 66.7%
- Control (1-9) Clover ([4]; Test 3, 21 DAT): 6
- % Control Clover ([4]; Test 3, 24 HAT): 11.1%
- Control (1-9) Clover ([4]; Test 3, 24 HAT): 1
- % Control Clover ([4]; Test 3, 72 HAT): 22.2%
- Control (1-9) Clover ([4]; Test 3, 72 HAT): 2
- % Control Clover ([4]; Test 4, 24 HAT): 11.1%
- Control (1-9) Clover ([4]; Test 4, 24 HAT): 1
- % Control Clover ([4]; Test 4, 72 HAT): 22.2%
- Control (1-9) Clover ([4]; Test 4, 72 HAT): 2
